# Literature values, collected in publication PMC3946937 (Pharmaceutical research, 2013).
# Like-named read-outs stand apart in the source and are kept apart here.
# Experiments:
# Mtb [1] = details: read-out: Mtb Activity in vitro: IC90
# Mtb [2] = system: Mtb
# Mtb [3] = system: Mtb; remark: listed apart in the source
structure (smiles),measurement,setting,value
CN1C(=O)[C@]23CC4=CC=C[C@H](O)[C@H]4N2C(=O)[C@@]1(CO)SS3 [Gliotoxin],IC90,Mtb [1],140 nM
CCCCC1C(=O)N(c2ccccc2)N(c2ccc(O)cc2)C1=O (stereo not shown) [Oxyphenbutazone],Mtb Activity in vitro: MIC,Mtb [2],MIC 10μg/ml
same,Notes: activity in words,Mtb [2]; non-replicating TB,Active against non-replicating TB Metabolite active against replicating TB-screened ~5600 compounds
O=C(Nc1ccc(F)c(F)c1F)NC1C2CC3CC(C2)CC1C3 (stereo not shown) [AU1235],Mtb Activity in vitro: MIC,Mtb [3],MIC 0.1μg/ml
